Measurements: the supplement of paper PMC13380429

Experiments:
Conditions in all cases: 72 h
Calu-3 [1] = test: drug sensitivity score (DSS) for viability; higher = more toxic; extreme values may be limits of the assay
HepG2 [2] = test: as above
Caco-2 [3] = test: as above
Vero E6 [4] = test: as above
Calu-3 [5] = test: relative viability EC50 (midpoint between 100% and the lowest measured viability); higher = less toxic
HepG2 [6] = test: as above
Caco-2 [7] = test: as above
Vero E6 [8] = test: as above
Calu-3 [9] = test: cell viability relative to DMSO; higher = less toxic
HepG2 [10] = test: as above
Caco-2 [11] = test: as above
Vero E6 [12] = test: as above
U2OS [13] = test: drug sensitivity score (DSS) for viability; higher = more toxic; extreme values may be limits of the assay
U2OS [14] = test: relative viability EC50 (midpoint between 100% and the lowest measured viability); higher = less toxic
U2OS [15] = test: cell viability relative to DMSO; higher = less toxic

Row | SMILES | drug sensitivity score (Calu-3 [1]) | drug sensitivity score (HepG2 [2]) | drug sensitivity score (Caco-2 [3]) | drug sensitivity score (Vero E6 [4]) | relative viability EC50 (Calu-3 [5]) [µM] | relative viability EC50 (HepG2 [6]) [µM] | relative viability EC50 (Caco-2 [7]) [µM] | relative viability EC50 (Vero E6 [8]) [µM] | cell viability (Calu-3 [9]; 1 nM) [%] | cell viability (Calu-3 [9]; 10 nM) [%] | cell viability (Calu-3 [9]; 100 nM) [%] | cell viability (Calu-3 [9]; 1000 nM) [%] | cell viability (Calu-3 [9]; 10000 nM) [%] | cell viability (HepG2 [10]; 1 nM) [%] | cell viability (HepG2 [10]; 10 nM) [%] | cell viability (HepG2 [10]; 100 nM) [%] | cell viability (HepG2 [10]; 1000 nM) [%] | cell viability (HepG2 [10]; 10000 nM) [%] | cell viability (Caco-2 [11]; 1 nM) [%] | cell viability (Caco-2 [11]; 10 nM) [%] | cell viability (Caco-2 [11]; 100 nM) [%] | cell viability (Caco-2 [11]; 1000 nM) [%] | cell viability (Caco-2 [11]; 10000 nM) [%] | cell viability (Vero E6 [12]; 1 nM) [%] | cell viability (Vero E6 [12]; 10 nM) [%] | cell viability (Vero E6 [12]; 100 nM) [%] | cell viability (Vero E6 [12]; 1000 nM) [%] | cell viability (Vero E6 [12]; 10000 nM) [%] | drug sensitivity score (U2OS [13]) | relative viability EC50 (U2OS [14]) [µM] | cell viability (U2OS [15]; 1 nM) [%] | cell viability (U2OS [15]; 10 nM) [%] | cell viability (U2OS [15]; 100 nM) [%] | cell viability (U2OS [15]; 1000 nM) [%] | cell viability (U2OS [15]; 10000 nM) [%]
1 | Cc1nc(C)c(-c2ccc(C3CCC(CC(=O)O)CC3)cc2)nc1C(N)=O (configuration not stated) [AZD7687] | 0 | 0 | 0.1 | 0 | > 10 | > 10 | > 10 | > 10 | 104 | 104 | 98.2 | 96.7 | 105 | 105 | 104 | 109 | 102 | 92.1 | 116 | 99.6 | 97.7 | 102 | 86.2 | 103 | 100 | 97.3 | 99.9 | 98.5 |  |  |  |  |  |  | 
2 | Cc1cc(C(=O)NOCCO)c(Nc2ccc(I)cc2F)n(C)c1=O [AZD8330] | 24.3 | 35 | 12 | 19.2 | 0.0118 | 0.0026 |  | 0.0072 | 78.8 | 69.5 | 44 | 29.3 | 25.7 | 78.2 | 34 | 24 | 20.1 | 18.4 | 86.1 | 83.3 | 70 | 62.1 | 66.3 | 89.5 | 72.1 | 52 | 47.7 | 49.2 | 13.3 | 0.265 | 93.1 | 94 | 86.2 | 37.3 | 28.3
3 | O=C(O)c1cc(N2N=C(C(F)(F)F)/C(=C/c3ccc(-c4ccccc4)o3)C2=O)ccc1Cl [EN460] | 0 | 0 | 0 |  | > 10 | > 10 | > 10 |  | 102 | 89.9 | 97.6 | 92.6 | 100 | 106 | 97.9 | 101 | 105 | 92.1 | 101 | 95.2 | 101 | 97.8 | 96.3 |  |  |  |  |  | 0 | > 10 | 101 | 102 | 97.9 | 98.6 | 100
4 | Cc1cc2sc(NC(=O)Cc3ccccc3)nc2cc1Cl [LH846] | 0 | 0 | 0 | 0 | > 10 | > 10 | > 10 | > 10 | 115 | 105 | 110 | 100 | 92.7 | 98.7 | 119 | 103 | 102 | 108 | 95.8 | 93.3 | 101 | 110 | 101 | 96.5 | 99.2 | 98 | 93.5 | 107 |  |  |  |  |  |  | 
5 | CC(=O)c1cc([N+](=O)[O-])c(Sc2cccc(Cl)c2Cl)s1 [P5091] | 0 | 0 | 4.5 | 0 | > 10 | > 10 |  | > 10 | 110 | 93.3 | 93.5 | 96.9 | 106 | 95.7 | 97.9 | 93.3 | 105 | 93.7 | 100 | 90 | 98.8 | 87.2 | 52.1 | 99.4 | 97.5 | 97.2 | 99.7 | 90.4 | 2.4 |  | 95.9 | 97.3 | 97.9 | 96.9 | 60.4
6 | O=C(c1ccc(F)cc1)C1CCN(CCn2c(=S)[nH]c3ccccc3c2=O)CC1 [altanserin] | 0 | 1.7 | 0.2 |  | > 10 | > 10 | > 10 |  | 104 | 103 | 112 | 97.3 | 111 | 108 | 107 | 88.2 | 96 | 86.4 | 103 | 82.7 | 94.2 | 89 | 90.6 |  |  |  |  |  | 0 | > 10 | 98.2 | 96.7 | 103 | 96.5 | 97.1
7 | c1ccc(CN(CC2=NCCN2)c2ccccc2)cc1 [antazoline] | 0 | 0 | 3.4 | 0 | > 10 | > 10 |  | > 10 | 90.2 | 105 | 98.3 | 104 | 91.7 | 102 | 91.8 | 90.6 | 96.7 | 103 | 103 | 84.4 | 92.1 | 84 | 70.7 | 99.1 | 102 | 105 | 90.4 | 91.7 | 0 | > 10 | 96.5 | 101 | 93.9 | 95 | 90.6
8 | O=C1CCc2ccc(OCCCCN3CCN(c4cccc(Cl)c4Cl)CC3)cc2N1 [aripiprazole] | 1.1 | 0.8 | 2.3 | 0 | > 10 | > 10 |  | > 10 | 98.5 | 98.5 | 104 | 91.9 | 83.3 | 109 | 105 | 98.6 | 100 | 77.5 | 112 | 78 | 94.6 | 90.5 | 70.8 | 94.1 | 97.6 | 93.7 | 96.3 | 88.2 | 0 | > 10 | 102 | 103 | 103 | 103 | 89.2
